Each structure is given as a SMILES string.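 Exposure lasted 48 hours, with cells grown in 96-well plates and compounds tested at five concentrations. GI50 marks 50% less growth. TGI is the concentration that stops growth completely.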

Holding throughout (test): NCI anticancer screen, dose series, 48 h
Test [1] deals with SR leukemia.
In test [2] the test system is SN12C renal.
The subject of test [3] is U251 CNS.
The subject of test [4] is OVCAR-8 ovarian.
The subject of test [5] is HOP-62 NSCLC.
The test system of test [6] is UACC-257 melanoma.
For test [7], the system named is SF-295 CNS.
In test [8] the test system is HOP-92 NSCLC.
Test [9] relates to HL-60(TB) leukemia.
Test [10] deals with RXF 393 renal.

With `O=NNc1ccc(S(=O)(=O)c2ccccc2)cn1`, the TGI in test [1], in test [2], in test [3], in test [4], in [5] and in test [6] was > 100 µM throughout. The TGI in test [7] was > 100 µM.
As for `CC1(CO)OC(n2cc(C(=O)NC(=O)OCc3ccccc3)c(=O)[nH]c2=O)CC1O` (configuration not stated), the TGI in test [1], in test [2], in [8], in test [3], in [4] and in [5] was > 100 µM in each case. Further, the TGI in test [6], in [7] and in test [9] was > 100 µM in each case.
Consider `Cc1ccc(/C=C2/SC(Nc3nc(-c4csc(NC5=NC(=O)/C(=C\c6ccc(C)cc6)S5)n4)cs3)=NC2=O)cc1`, for which the GI50 in test [2] was 5.54 µM; in test [8], 7.03 µM; in test [3] it was 3.43 µM; in test [4], 6.05 µM; in [10] it was 23.8 µM; in [5], 1.94 µM. Further, the GI50 in test [6] is 2.81 µM; in [7], 6.66 µM; in test [9], 2.03 µM. Besides, the TGI in test [2] was > 50 µM; in [8], 24.5 µM; in [3], > 50 µM; in test [4], 26.6 µM; in test [10], > 50 µM; in test [5], 15.5 µM. Also, the values for the TGI in [6], in [7] and in [9] were 14.6 µM, > 50 µM and 29.9 µM, respectively.
In the case of `C#CCC(Cc1cnc2nc(N)nc(N)c2n1)c1ccc(C(=O)N[C@@H](CCC(=O)O)C(=O)O)cc1` (some centres not stated), the GI50 in test [1], in [2], in test [3], in [4], in test [10] and in [5] was < 0.01 µM in each case. Further, the GI50 in test [6] is 0.0243 µM; in [7], < 0.01 µM; in test [9] it was < 0.01 µM. The TGI in test [1], in [2], in test [3], in test [4], in test [10] and in [5] was > 100 µM throughout. Also, the TGI in test [6], in test [7] and in [9] was > 100 µM in each case.
Turning to `NC(=S)N/N=C(\Cc1nc2ccc(Cl)cc2[nH]c1=O)C(=O)Nc1ccc(Cl)cc1`, the TGI in test [2], in test [8], in [3], in test [4], in test [10] and in test [5] was > 100 µM in each case. The TGI in test [6], in [7] and in [9] was > 100 µM in each case.
In the case of `CC1(c2cccc3ccccc23)OC(=O)c2ccccc21` (configuration not stated), the TGI is 67.8 µM in test [2]; 36.5 µM in [8]; 45.7 µM in test [3]; > 100 µM in test [4]; 46.1 µM in test [10]; 41.6 µM in test [5]. Also, the TGI turned out to be 54.5 µM in [6], 54.5 µM in test [7] and 43.4 µM in [9].
Regarding `CCn1c(CN2CCN(Cc3ccccc3)CC2)nc2cc(NC(=O)c3cccs3)ccc21`, the GI50 in test [1] was 12.6 µM; in [2], 23.5 µM; in test [8] it was 12.3 µM; in test [3], 13.6 µM; in test [4], 20.1 µM; in [10] it was 12.5 µM. For the same compound, the GI50 was 17.7 µM in [5], 16.7 µM in [7] and 20.5 µM in test [9]. For the same compound, the TGI in [1] was 39.1 µM; in test [2], > 100 µM; in test [8], 40.3 µM; in test [3], 32.3 µM; in [4], 55.9 µM; in test [10], 33.1 µM. Besides, the TGI in test [5] is 38 µM; in test [7], 34.7 µM; in test [9], 60.9 µM.
With `Cc1ccc(-n2c3c(c4c(CN(C)C)c(O)ccc42)CCc2ccccc2C3=O)cc1`, the GI50 was 16.3 µM in [2]; 17.5 µM in test [8]; 15.6 µM in test [3]; 16.9 µM in test [4]; 13.6 µM in test [10]; 17.8 µM in test [5]. Besides, the GI50 in test [6] is 17.7 µM; in test [7], 18.3 µM; in [9], 9.49 µM. Further, the TGI worked out at 30.9 µM in test [2]; 40 µM in test [8]; 30.5 µM in [3]; 41.8 µM in test [4]; 28 µM in test [10]; 40.9 µM in [5]. Moreover, the figures for the TGI in test [6], in test [7] and in test [9] were 34 µM, 35.9 µM and 24.5 µM, respectively.
In the case of `COc1c(OC)c(OC)c2c(c1OC)c(=O)c1ccccc1n2C`, the TGI in test [1], in test [2], in [8], in test [3], in [4] and in test [5] was > 100 µM each time. The TGI in test [6], in test [7] and in test [9] was > 100 µM in each case.
Consider `COc1cc(/C=C(\C#N)C(=O)c2ccccc2)ccc1O`, for which the TGI in [1], in test [2], in test [3], in test [4], in [5] and in test [6] was > 100 µM each time. Also, the TGI in [7] and in test [9] was > 100 µM each time.
Consider `CCCCCCCCCCCCCC(=O)CC(=O)c1c(O)cccc1O`, for which the TGI in [2] was > 100 µM; in test [8], 89.7 µM; in test [3], > 100 µM; in test [4] it was > 100 µM; in test [10] it was > 100 µM; in test [5], > 100 µM. The TGI is 85.3 µM in test [6], > 100 µM in test [7] and 41.7 µM in test [9].

For the origin of these results see PubChem BioAssay (NCI).
